From US10253060B2, “Terpenoid derivatives” (Daiichi Sankyo Company, Limited, priority 2013, dated 2019)

Legend:
ARPE-19 cells = experiment: Cytotoxicity, LDH-Cytotoxic Test in ARPE-19 cells; type: cell-based, human; settings: 10 μM, approx. 16 hours, 3 wells
Description: ARPE-19 cells (human retinal pigment epithelium cell line, ATCC, catalog No. CRL-2302) were cultured (5% CO2, 37° C.). A DMEM/F12 (Life Technologies Japan Ltd., catalog No. 11330-032) mixed medium containing 10% inactivated FBS was used. The medium contained 100 units/mL (final concentration) penicillin and 100 μg/[…] (final concentration) streptomycin.
The ARPE-19 cells were seeded at 5000 cells/well in a 96-well plate. The amount of the medium was 50 μL. Approximately 3 hours later, 50 μL of a medium containing CDDO-Me or each of terpenoid derivatives A to H was added thereto, followed by culture for approximately 16 hours. Then, cytotoxicity was evaluated using LDH-Cytotoxic Test (Wako Pure Chemical Industries, Ltd., catalog No. 299-50601). The evaluation method followed the attached document. Each group consisted of 3 wells and was indicated as cytotoxicity at the concentration of 10 μM. The means thereof were 43% for CDDO-Me, 2% for terpenoid derivative A, 2% for terpenoid derivative B, 2% for terpenoid derivative C, 1% for terpenoid derivative D, 2% for terpenoid derivative E, 3% for terpenoid derivative F, 3% for terpenoid derivative G, and 1% for terpenoid derivative H. Terpenoid derivatives A to H were low in cytotoxicity as compared with CDDO-Me.

NQO1 = NQO1 assay in Hepa1c1c7 cells; type: cell-based, mouse; settings: approx. 48 hours, mean of 3 wells
Description: Hepa1c1c7 cells (mouse hepatic cell line, ATCC, catalog No. CRL-2026) were cultured (5% CO2, 37° C.). A DMEM (Life Technologies Japan Ltd., catalog No. 11965-092) medium also containing 10% inactivated FBS was used. The medium contained 100 units/mL (final concentration) penicillin and 100 μg/[…] (final concentration) streptomycin. The NQO1 assay was conducted according to previous reports (Anal Biochem 1998; 169: 328-; and Methods Enzymol 2004; 382: 243-).
The Hepa1c1c7 cells were seeded at 10000 cells/well in a 96-well plate. The amount of the medium was 100 μL. Approximately 24 hours later, the medium was replaced with a medium containing CDDO-Me or each of terpenoid derivatives A to G, followed by further culture for approximately 48 hours. A lysis solution (a solution containing 2 mM EDTA and 0.8% digitonin), a reaction solution (a solution containing 0.025 M of tris-HCl, 0.067% of albumin, 0.01% of Tween-20, 2 U/mL of glucose-6-phosphate dehydrogenase, 5 μM of flavin adenine dinucleotide, 1 […], 30 μM of nicotinamide adenine dinucleotide phosphate, 0.03% of 3-(4,5-dimethyl-2-thiazolyl)-2,5-diphenyltetrazolium bromide (MTT), and 50 μM of menadione), and a stop solution (a solution containing 0.3 mM dicumarol and 5 mM potassium dihydrogen phosphate, pH 7.4) were prepared. After removal of the medium, 50 μL of the lysis solution was added thereto, and the mixture was left standing at 37° C. for 10 minutes. The reaction mixture was further shaken at room temperature for 10 minutes.
Two hundred μL of the solution was added thereto, and the mixture was left standing at room temperature for 5 minutes. Fifty μL of the stop solution was added thereto, and the absorbance at 490 nm was measured.
The test results were analyzed using Prism (GraphPad Software, Inc., Ver. 5) to calculate the CD value of the concentration at which the activity of NQO1 was increased 2-fold. Each group consisted of 3 wells and indicated as a mean of CD values.

Structure (SMILES) | cytotoxicity (LDH-Cytotoxic Test), mean (ARPE-19 cells) | CD value (concentration at which the activity of NQO1 was increased 2-fold) (NQO1)
COC(=O)[C@]12CC[C@@](C)(CO)C[C@H]1[C@H]1C(=O)C=C3[C@@]4(C)[C@H]5O[C@@]5(C#N)C(=O)C(C)(C)[C@@H]4CC[C@@]3(C)[C@]1(C)CC2 [terpenoid derivative D] | 1% | 0.9 nM
COC(=O)[C@]12CC[C@](C)(CO)C[C@H]1[C@H]1C(=O)C=C3[C@@]4(C)[C@H]5O[C@@]5(C#N)C(=O)C(C)(C)[C@@H]4CC[C@@]3(C)[C@]1(C)CC2 [terpenoid derivative A] | 2% | 1.3 nM
COC(=O)[C@@]12CC[C@]3(C)[C@H](C(=O)C=C4[C@@]5(C)[C@H]6O[C@@]6(C#N)C(=O)C(C)(C)[C@@H]5CC[C@]43C)[C@@H]1CC(C)(C)C(=O)C2 [terpenoid derivative C] | 2% | 0.4 nM
COC(=O)[C@]12CCC(C)(C)C[C@H]1[C@H]1C(=O)C=C3[C@@]4(C)C5OC5(C#N)C(=O)C(C)(C)[C@@H]4CC(O)[C@@]3(C)[C@]1(C)CC2 (stereo partly shown) [terpenoid derivative H] | 1% | 
CC1(C)C[C@H]2[C@H]3C(=O)C=C4[C@@]5(C)C6OC6(C#N)C(=O)C(C)(C)[C@@H]5CC[C@@]4(C)[C@]3(C)CC[C@@]2(C#N)CC1O (stereo partly shown) [terpenoid derivative F] | 3% | 0.1 nM
CC1(C)CC(O)[C@]2(C(N)=O)CC[C@]3(C)[C@H](C(=O)C=C4[C@@]5(C)C6OC6(C#N)C(=O)C(C)(C)[C@@H]5CC[C@]43C)[C@@H]2C1 (stereo partly shown) [terpenoid derivative E] | 2% | 2.1 nM
CC1(C)C[C@H]2[C@H]3C(=O)C=C4[C@@]5(C)C=C(C#N)C(=O)C(C)(C)[C@@H]5CC[C@@]4(C)[C@]3(C)CC[C@@]2(C#N)CC1O (stereo partly shown) [terpenoid derivative G] | 3% | 0.1 nM
